Data published in EP4640688A1, “AVERMECTIN DERIVATIVE” (Meiji Seika Pharma Co., Ltd., priority 2022, dated 2024).

Test system: SARS-CoV-2
Assay type: cell-based
Conditions: concentration reducing replication to 50% vs control, read-out: Antiviral activity

| Compound | IC50 [nM] |
| --- | --- |
| CCC(C)C1OC2(CCC1C)CC1CC(CC=C(C)C(OC3CC(OC)C(OC4CC(OC)C(O)C(C)O4)C(C)O3)C(C)C=CC=C3COC4C(=NO)C(C)CC(C(=O)O1)C34O)O2 (centres unmarked) [Compound I-1] | < 1000 |
| CCC(C)C1OC2(CCC1C)CC1CC(CC=C(C)C(OC3CC(OC)C(OC4CC(OC)C(O)C(C)O4)C(C)O3)C(C)C=CC=C3COC4C(=NOCC(=O)NC)C(C)=CC(C(=O)O1)C34O)O2 (centres unmarked) [Compound I-124] | < 1000 |
